What all share (assay type): functional
Assay [1] deals with Yersinia enterocolitica. Briefly: Antimicrobial activity against Yersinia enterocolitica Biovar 1B 8081 after 20 hrs by Etest. As to conditions: Biovar 1B 8081, 20 h.
Assay [2] has as its system Yersinia enterocolitica. In words: Antimicrobial activity against beta-lactamase A-deficient Yersinia enterocolitica GY5717 after 20 hrs by Etest. The conditions noted are these: GY5717, 20 h.
For assay [3], the system named is Yersinia enterocolitica. Briefly: Antimicrobial activity against beta-lactamase B-deficient Yersinia enterocolitica GY5542 after 20 hrs by Etest. The conditions noted are these: GY5542, 20 h.
For assay [4], the system named is Yersinia enterocolitica. Briefly: Antimicrobial activity against beta-lactamase A and B-deficient Yersinia enterocolitica GY5718 after 20 hrs by Etest. As to conditions: GY5718, 20 h.

≈ marks a conversion by molar mass, not a printed value.

By MIC is commonly meant the lowest concentration that inhibits growth of the organism. Lower therefore signals a more susceptible organism. As for `C[C@@H](O)[C@H]1C(=O)N2C(C(=O)O)=C(SCCNC=N)C[C@H]12` [IMIPENEM ANHYDROUS], the MIC against Yersinia enterocolitica [1], against Yersinia enterocolitica [2], in the assay on Yersinia enterocolitica [3] and in the assay with Yersinia enterocolitica [4] was 0.25 µg/mL (≈ 0.835 µM) each time.

For `CCN1CCN(C(=O)N[C@@H](C(=O)N[C@@H]2C(=O)N3[C@@H]2SC(C)(C)[C@@H]3C(=O)O)c2ccccc2)C(=O)C1=O` [PIPERACILLIN], the minimal inhibitory concentration (MIC) turned out to be 0.75 µg/mL (≈ 1.45 µM) against Yersinia enterocolitica [1], 0.19 µg/mL (≈ 0.367 µM) in the assay with Yersinia enterocolitica [2], 0.75 µg/mL (≈ 1.45 µM) in the assay on Yersinia enterocolitica [3] and 0.094 µg/mL (≈ 0.182 µM) in the assay with Yersinia enterocolitica [4].

With `CC1(C)S[C@@H]2[C@H](NC(=O)[C@H](N)c3ccccc3)C(=O)N2[C@H]1C(=O)O` [AMPICILLIN], the minimal inhibitory concentration (MIC) in the assay with Yersinia enterocolitica [1] is 4 µg/mL (≈ 11.4 µM); in the assay with Yersinia enterocolitica [2], 0.5 µg/mL (≈ 1.43 µM); against Yersinia enterocolitica [3], 4 µg/mL (≈ 11.4 µM); in the assay on Yersinia enterocolitica [4], 0.19 µg/mL (≈ 0.544 µM).

With `CC1(C)S[C@@H]2[C@H](NC(=O)[C@H](N)c3ccc(O)cc3)C(=O)N2[C@H]1C(=O)O` [AMOXICILLIN], the minimum inhibitory concentration (MIC) in the assay with Yersinia enterocolitica [1] was determined as 24 µg/mL (≈ 65.7 µM); against Yersinia enterocolitica [2], 1.5 µg/mL (≈ 4.1 µM); in the assay with Yersinia enterocolitica [3], 24 µg/mL (≈ 65.7 µM); against Yersinia enterocolitica [4] it was 0.38 µg/mL (≈ 1.04 µM).

With `CO/N=C(\C(=O)N[C@@H]1C(=O)N2C(C(=O)O)=C(CSc3nc(=O)c(O)nn3C)CS[C@H]12)c1csc(N)n1` [CEFTRIAXONE], the minimum inhibitory concentration (MIC) came to 0.023 µg/mL (≈ 0.0415 µM) against Yersinia enterocolitica [1], 0.016 µg/mL (≈ 0.0289 µM) against Yersinia enterocolitica [2], 0.016 µg/mL (≈ 0.0289 µM) against Yersinia enterocolitica [3] and 0.012 µg/mL (≈ 0.0216 µM) in the assay with Yersinia enterocolitica [4].

Consider `CC1(C)S[C@@H]2[C@H](NC(=O)Cc3ccccc3)C(=O)N2[C@H]1C(=O)O` [PENICILLIN G], for which the minimum inhibitory concentration (MIC) stood at 24 µg/mL (≈ 71.8 µM) against Yersinia enterocolitica [1], 4 µg/mL (≈ 12 µM) in the assay on Yersinia enterocolitica [2], 24 µg/mL (≈ 71.8 µM) with Yersinia enterocolitica [3] and 1 µg/mL (≈ 2.99 µM) against Yersinia enterocolitica [4].

Consider `CO/N=C(\C(=O)N[C@@H]1C(=O)N2C(C(=O)O)=C(COC(C)=O)CS[C@H]12)c1csc(N)n1` [CEFOTAXIME], for which the minimum inhibitory concentration (MIC) is 0.023 µg/mL (≈ 0.0505 µM) with Yersinia enterocolitica [1], 0.023 µg/mL (≈ 0.0505 µM) against Yersinia enterocolitica [2], 0.016 µg/mL (≈ 0.0351 µM) in the assay on Yersinia enterocolitica [3] and 0.012 µg/mL (≈ 0.0263 µM) against Yersinia enterocolitica [4].

`CO/N=C(\C(=O)N[C@@H]1C(=O)N2C(C(=O)O)=C(COC(N)=O)CS[C@H]12)c1ccco1` [CEFUROXIME]: the MIC with Yersinia enterocolitica [1] worked out at 0.75 µg/mL (≈ 1.77 µM); with Yersinia enterocolitica [2], 0.5 µg/mL (≈ 1.18 µM); with Yersinia enterocolitica [3], 0.75 µg/mL (≈ 1.77 µM); in the assay on Yersinia enterocolitica [4] it was 0.5 µg/mL (≈ 1.18 µM).

For the origin of these results see ChEMBL document CHEMBL1687764, “Contribution of BlaA and BlaB beta-lactamases to antibiotic susceptibility of Yersinia enterocolitica biovar 1B” (2010).
